These results are taken from patent publication US20120115157A1, “Methods for Screening for Antibiotic Compounds” (Trustees of Dartmouth College, priority 2009, published 2012).

In brackets after ≈: the same amount, converted by molar mass.

The subject of this assay is S. aureus. The experiment in a line: Minimum Inhibitory Concentration (MIC), inhibition of growth of S. aureus in vitro. In kind it is cell-based. The settings on record: Staphylococcus aureus. The text has this: The next step will be to test the drugs for activity in vitro to inhibit growth of bacterial cells and determination of minimum inhibitory concentration (MIC) doses for the drugs. Determining MIC doses is a standard assay in development of antibiotic drugs and methods are well known in the art. For example, MIC can be determined according to the Clinical and Laboratory Standards Institute guidelines.
Once the compounds of the present invention were identified through the MazEF screening assay described above, the activity of the compounds to inhibit growth of S. aureus in vitro was tested using the standard method of determining Minimum Inhibitory Concentrations (MICS). Such methods are well known to those of skill in the art since determining MIC doses is a standard assay in development of antibiotic drugs. For example, MIC values can be determined according to the Clinical and Laboratory Standards Institute guidelines. In Table 1, the MIC values are presented for each of the ten compounds identified through the MazEF screening assay as having potential for antibiotic activity in S. aureus.
As for `CN(C)c1ccc(/C=C2\SC(=S)N(C(Cc3ccccc3)C(=O)O)C2=O)cc1` (centres unmarked) [Compound 1, 2-{5-[4-(dimethylamino)benzylidene]-4-oxo-2-thioxo-1,3-thiazolidin-3-yl}-3-phenylpropanoic acid], the MIC was 12.5 µg/mL (≈ 30.3 µM). Next, `Cc1ccc(Nc2nc3nonc3nc2N)c(C)c1` [Compound 4, N-(2,4-dimethylphenyl)[1,2,5]oxadiazolo [3,4-b]pyrazine-5,6-diamine]: 12.5 µg/mL (≈ 48.8 µM); `O=C1c2ccccc2-c2onc3ccc(Cl)c1c23` [Compound 5, 5-chloro-6H-anthra[1,9-cd]isoxazol-6-one]: 6.25 µg/mL (≈ 24.4 µM); `CCN1CCc2c(sc(NC(=O)Nc3ccc(Cl)cc3)c2C(N)=O)C1` [Compound 9, 2-({[(4-chlorophenyl)amino]carbonyl}amino)-6-ethyl-4,5,6,7-tetrahydrothieno[2,3-c]pyridine-3-carboxamide]: 100 µg/mL (≈ 264 µM). The compound `COc1ccc(/C=C\C(=O)C2C(=O)c3ccccc3C2=O)cc1` [Compound 10] yielded a minimum inhibitory concentration (MIC) of 100 µg/mL (≈ 326 µM).

What is called MIC is the least concentration at which growth counts as inhibited.
